Values quoted from earlier work, collected in patent US12030852B2, “Method for producing fatty alcohol esters of hydroxycarboxylic acids” (IOI Oleo GmbH, priority 2019, dated 2024).

Conditions: even if several grams are taken; short plasma half-life

CC(O)CC(=O)O (stereo not shown) [3-hydroxybutyric acid]
duration of ketosis: about three to four
